Values joined by “and” are separate entries in the source; they are usually repeats but may differ in a detail not shown here. Equal values may be shown once.
System: Kunming mice
Conditions: mouse, in vivo

In the case of N=C1NC(O)C2C3OC4(O)OC(C(O)C2(N1)[C@@H]4O)C3(O)COC1OC(CO)C(O)C(O)C1O (stereo partly drawn) [Formula 11-Gal-TTX, 11-galactopyranosyl-TTX], the “Effect on pain (result in words)” value is reported as “inhibitory effect on pain”, the “Inhibition rate (%)” value is reported as 60.6% and 30.3% and 51.7% and the Number of writhes is reported as 12.50 ± 4.7 and 22.10 ± 6.4 and 15.30 ± 6.4.
